According to patent publication US10150982B2, “Microbial ecology shift assay” (Second Genome, Inc., priority 2013, dated 2018):

Experiments:
[1] = system: microbiota of human donor fecal samples; experiment: MESA microplate experiments (16S rRNA V4 sequencing, PCoA/Unifrac); assay type: cell-based; settings: 24 hours anaerobic
Experimental: A fecal sample was obtained from each of three human donors, Donor 1, Donor 2, and Donor 3. 1 gram of each fecal sample was added to 10 mL phosphate buffered saline (PBS) to form three separate slurries of 10% (w/v) fecal sample. A total of 36 experiments was setup on a 48-well plate (referred to herein as “microplate experiments”). For each slurry obtained from Donor 1 Donor 2, or Donor 3, 40 μL of the respective slurry was added to each of twelve wells of the plate. For each of these 12 wells, 360 μL of water (control), water comprising fructose, or water comprising fructose oligosaccharide (FOS) were added. After addition of water, three of the twelve wells comprised slurry+water; three of the twelve wells comprised slurry+2% w/v fructose+water; three of the twelve wells comprised slurry+0.5% w/v FOS+water; and three of the twelve wells comprised slurry+2% w/v FOS+water. In Table 1, “Donor 1” represents slurry from Donor 1, “Donor 2” represents slurry from Donor 2, and “Donor 3” represents slurry from Donor 3. The microplate was then incubated for 24 hours in an anaerobic chamber under 80% nitrogen, 10% carbon dioxide, and 10% hydrogen (H2). A total of 8 experiments were prepared each in a vial (referred to herein as “tube experiments”). 200 μL of slurry from Donor 1 was added to each of the 8 vials. In 4 of the vials, 1.8 mL of water comprising FOS was added for a final concentration of 2% w/v FOS. For the other four vials, 1.8 mL of water (control) was added. Two of the vials comprising FOS and the two vials comprising water are incubated for 24 hours in an anaerobic chamber (comprising 80% nitrogen, 10% carbon dioxide, and 10% hydrogen (H2)) at 37° C. The other four vials are incubated for 16 hours. DNA was extracted from each sample (well or tube) and quantified using a PicoGreen method. DNA is also extracted from an aliquot of each slurry obtained from Donor 1, Donor 2, and Donor 3. DNA comprising the variable region (V4) region of the 16S rRNA gene was amplified and sequenced using the MiSeq platform from Ilumina. Principle component analyses (PCoA) were performed to identify Unifrac distances (degree of similarity/dissimilarity) of the different treatment groups. Relative taxa representation for the various treatment groups was determined at the phylum, class, order, family, genus and species levels using operational taxonomic units (OTUs) by comparing results to the GreenGenes database.

[2] = system: microbiota of human donor fecal samples; experiment: MESA tube experiments (16S rRNA V4 sequencing, PCoA/Unifrac); assay type: cell-based; settings: 2% FOS
Experimental: A fecal sample was obtained from each of three human donors, Donor 1, Donor 2, and Donor 3. 1 gram of each fecal sample was added to 10 mL phosphate buffered saline (PBS) to form three separate slurries of 10% (w/v) fecal sample. A total of 36 experiments was setup on a 48-well plate (referred to herein as “microplate experiments”). For each slurry obtained from Donor 1 Donor 2, or Donor 3, 40 μL of the respective slurry was added to each of twelve wells of the plate. For each of these 12 wells, 360 μL of water (control), water comprising fructose, or water comprising fructose oligosaccharide (FOS) were added. After addition of water, three of the twelve wells comprised slurry+water; three of the twelve wells comprised slurry+2% w/v fructose+water; three of the twelve wells comprised slurry+0.5% w/v FOS+water; and three of the twelve wells comprised slurry+2% w/v FOS+water. In Table 1, “Donor 1” represents slurry from Donor 1, “Donor 2” represents slurry from Donor 2, and “Donor 3” represents slurry from Donor 3. […] DNA was extracted from each sample (well or tube) and quantified using a PicoGreen method. […] Relative taxa representation for the various treatment groups was determined at the phylum, class, order, family, genus and species levels using operational taxonomic units (OTUs) by comparing results to the GreenGenes database.

[3] = Donor 1, 2% w/v agent, n=3, FIG. 2
[4] = Donor 2, 2% w/v agent, n=3, FIG. 3
[5] = Donor 3, 2% w/v agent, n=3, FIG. 4

| Compound | shift in microbiota profile (PCoA, Unifrac distances) [1, 3] | shift in microbiota profile (PCoA, Unifrac distances) [1, 4] | shift in microbiota profile (PCoA, Unifrac distances) [1, 5] | shift in microbiota profile (PCoA, Unifrac distances) ([1]; Donor 1, 0.5% w/v agent, n=3, FIG. 2) | shift in microbiota profile (PCoA, Unifrac distances) ([1]; Donor 2, 0.5% w/v agent, n=3, FIG. 3) | shift in microbiota profile (PCoA, Unifrac distances) ([1]; Donor 3, 0.5% w/v agent, n=3, FIG. 4) | shifts in microbial communities between the two assay formats ([2]; 24 hour incubation, tube (n=2) vs microplate (n=3), FIG. 6) | shifts in microbial communities between the two incubation times ([2]; Donor 1, 16 hour vs 24 hour incubation, tube, n=2, FIG. 5) |
| --- | --- | --- | --- | --- | --- | --- | --- | --- |
| O=C(CO)[C@@H](O)[C@H](O)[C@H](O)CO [fructose] | shift microbiota differently from controls | shift microbiota differently from controls | shift microbiota differently from controls | – | – | – | – | – |
| fructose oligosaccharide [FOS] | shift microbiota differently from controls | shift microbiota differently from controls | shift microbiota differently from controls | shift microbiota differently from controls | shift microbiota differently from controls | shift microbiota differently from controls | similar | similar |
